Results on 17 compounds are retold here after ChEMBL document CHEMBL5120969, “Identification of Monosaccharide Derivatives as Potent, Selective, and Orally Bioavailable Inhibitors of Human and Mouse Galectin-3” (J Med Chem, 2022).

Each structure is given as a SMILES string.

The nature of series [1]: Permeability of the compound at pH 7.4 measured for 4 hrs by UV plate reader based PAMPA assay. It counts as ADME. Conditions: read-out: permeability.
Series [2] can be described thus: Permeability of the compound at pH 5.5 measured for 4 hrs by UV plate reader based PAMPA assay. It is filed as ADME. The settings on record: read-out: permeability.
Series [3] is described as follows: Cmax in C57BL6 mouse at 10 mg/kg, po measured upto 24 hrs by LC-MS/MS analysis. It counts as ADME, organism-based. Set-up: time < 24 hrs, dose 10 mg/kg, route po. The settings on record: in vivo.
Series [4] can be described thus: AUC (0 to 24 hrs) in C57BL6 mouse at 10 mg/kg, po measured upto 24 hrs by LC-MS/MS analysis. It counts as ADME, organism-based. Set-up: dose 10 mg/kg, time < 24 hrs, route po. Conditions: in vivo.
A short description of series [5]: Volume of distribution at steady state in C57BL6 mouse at 2 mg/kg, iv measured upto 24 hrs by LC-MS/MS analysis. It is filed as ADME, organism-based. Conditions: in vivo, read-out: Vdss.
A short description of series [6]: Oral bioavailability in C57BL6 mouse at 10 mg/kg measured upto 24 hrs by LC-MS/MS analysis. It is filed as ADME, organism-based. The settings on record: in vivo.
Series [7] can be described thus: Clearance in C57BL6 mouse at 2 mg/kg, iv measured upto 24 hrs by LC-MS/MS analysis. It is filed as ADME, organism-based. The settings on record: in vivo.
The nature of series [8]: Metabolic stability of the compound in rat liver microsomes assessed as CYP450-mediated metabolism by measuring parent compound remaining at 0.5 uM measured after 10 mins in presence of NADPH by LC-MS/MS analysis. It counts as ADME, Microsome. The settings on record: read-out: Stability. Background: Microsomes from liver hold many membrane-bound enzymes, among them those of drug oxidation.

Series [9] is described as follows: Metabolic stability of the compound in mouse liver microsomes assessed as CYP450-mediated metabolism by measuring parent compound remaining at 0.5 uM measured after 10 mins in presence of NADPH by LC-MS/MS analysis. It is filed as ADME, Microsome. The settings on record: read-out: Stability.

Turning to `OC[C@H]1O[C@@H](n2nncc2-c2cccc(Cl)c2)[C@H](O)[C@@H](n2cc(-c3cc(F)c(F)c(F)c3)nn2)[C@H]1O`, the Papp at 4 h turned out to be 3.3 ×10⁻⁶ cm/s in [1] and 3.1 ×10⁻⁶ cm/s in series [2].

As to `COc1ccc(Cl)cc1-n1nc(C)nc1[C@@H]1O[C@H](CO)[C@H](O)[C@H](n2cc(-c3cc(F)c(F)c(F)c3)nn2)[C@H]1O`, the results for the Papp at 4 h in [1] and in series [2] were 14 ×10⁻⁶ cm/s and 15.7 ×10⁻⁶ cm/s, respectively.

On to `Cc1nc([C@@H]2O[C@H](CO)[C@H](O)[C@H](n3cc(-c4cc(F)c(F)c(F)c4)nn3)[C@H]2O)n(-c2cc(Cl)ccc2C)n1`, for which the values for the Papp at 4 h in series [1] and in series [2] were 18.1 ×10⁻⁶ cm/s and 15 ×10⁻⁶ cm/s, respectively.

As for `Cc1nc([C@@H]2O[C@H](CO)[C@H](O)[C@H](n3cc(-c4cc(F)c(F)c(F)c4)nn3)[C@H]2O)n(-c2cc(Cl)ccc2Cl)n1`, the values for the Papp at 4 h in series [1] and in [2] were 30.4 ×10⁻⁶ cm/s and 24.7 ×10⁻⁶ cm/s, respectively.

For the compound `OC[C@H]1O[C@@H](n2nncc2-c2ccc(Cl)c(Cl)c2)[C@H](O)[C@@H](n2cc(-c3cc(F)c(F)c(F)c3)nn2)[C@H]1O`, the Papp at 4 h in series [1] was 7 ×10⁻⁶ cm/s.

As for `OC[C@H]1O[C@@H](c2nncn2-c2cccc(Cl)c2)[C@H](O)[C@@H](n2cc(-c3cc(F)c(F)c(F)c3)nn2)[C@H]1O`, the Papp at 4 h in [1] was 0.6 ×10⁻⁶ cm/s.

For orientation: Cmax means the highest concentration seen after dosing. As usually defined, the AUC(0-t) is exposure summed from dosing to a finite time, without extrapolation to infinity. Consider `Cc1nc([C@@H]2O[C@H](CO)[C@H](O)[C@H](n3cc(-c4ccc(Cl)c(F)c4F)nn3)[C@H]2O)n(-c2cc(Cl)ccc2C(F)(F)F)n1`, for which, in [3], the Cmax worked out at 3.6 µM. This compound also registered an AUC(0-t) at 24 h in [4] of 37 µM·h.

A word on the bioavailability: it is the share of a dose that reaches the circulation, judged against a reference dose that is usually intravenous. A low value points to little systemic uptake. Usually clearance stands for the rate of elimination divided by the concentration. Read a low clearance as a low capacity for elimination. On to `Cc1nc([C@@H]2O[C@H](CO)[C@H](O)[C@H](n3cc(-c4ccc(Br)c(F)c4F)nn3)[C@H]2O)n(-c2cc(Cl)ccc2C(F)(F)F)n1`, for which the Vd in series [5] was found to be 2.4 L/kg. This compound displayed a Cmax in [3] of 5 µM. The bioavailability in series [6] was 40%. The same compound showed a clearance in series [7] of 2.7 mL/min/kg. The compound also displayed an AUC(0-t) at 24 h in series [4] of 40 µM·h.

In the case of `Cc1nc([C@@H]2O[C@H](CO)[C@H](O)[C@H](n3cc(-c4cc(F)c(F)c(F)c4)nn3)[C@H]2O)n(-c2cc(Cl)cc(Cl)c2)n1`, the Papp at 4 h worked out at 12.5 ×10⁻⁶ cm/s in series [1] and 10.8 ×10⁻⁶ cm/s in series [2].

`Cc1nc([C@@H]2O[C@H](CO)[C@H](O)[C@H](n3cc(-c4cc(F)c(F)c(F)c4)nn3)[C@H]2O)n(-c2cc(Cl)ccc2C(F)(F)F)n1`: the values for the Papp at 4 h in [1] and in series [2] were 36.9 ×10⁻⁶ cm/s and 51.1 ×10⁻⁶ cm/s, respectively.

Regarding `Cc1nc([C@@H]2O[C@H](CO)[C@H](O)[C@H](n3cc(-c4cc(F)c(F)c(F)c4)nn3)[C@H]2O)n(-c2cc(Cl)ccc2Br)n1`, the Papp at 4 h turned out to be 14.8 ×10⁻⁶ cm/s in series [1] and 14.5 ×10⁻⁶ cm/s in series [2].

On to `Cc1nc([C@@H]2O[C@H](CO)[C@H](O)[C@H](n3cc(-c4cc(F)c(F)c(F)c4)nn3)[C@H]2O)n(-c2cccc(Cl)c2)n1`, for which the results for the Papp at 4 h in series [1] and in [2] were 34.5 ×10⁻⁶ cm/s and 36.3 ×10⁻⁶ cm/s, respectively.

With `Cc1nc([C@@H]2O[C@H](CO)[C@H](O)[C@H](n3cc(-c4cc(F)c(F)c(F)c4)nn3)[C@H]2O)n(-c2ccc(Cl)c(Cl)c2)n1`, the Papp at 4 h in series [1] stood at 45.6 ×10⁻⁶ cm/s; in series [2], 44.4 ×10⁻⁶ cm/s.

On to `OC[C@H]1O[C@@H](c2ncnn2-c2cccc(Cl)c2)[C@H](O)[C@@H](n2cc(-c3cc(F)c(F)c(F)c3)nn2)[C@H]1O`, for which the Papp at 4 h in series [1] was found to be 20.3 ×10⁻⁶ cm/s.

Take `Cc1nc([C@@H]2O[C@H](CO)[C@H](O)[C@H](n3cc(-c4cc(F)c(F)c(F)c4)nn3)[C@H]2O)n(-c2cccc(Cl)c2Cl)n1`: the Papp at 4 h in series [1] came to 45.2 ×10⁻⁶ cm/s; in series [2], 42.3 ×10⁻⁶ cm/s.

As to `Cc1nc([C@@H]2O[C@H](CO)[C@H](O)[C@H](n3cc(-c4cc(F)c(F)c(F)c4)nn3)[C@H]2O)n(-c2cc(Cl)ccc2F)n1`, the Papp at 4 h in series [1] came to 12.5 ×10⁻⁶ cm/s; in series [2], 12.7 ×10⁻⁶ cm/s.

For `Cc1nc([C@@H]2O[C@H](CO)[C@H](O)[C@H](n3cc(-c4cc(F)c(Cl)c(F)c4)nn3)[C@H]2O)n(-c2cc(Cl)ccc2C(F)(F)F)n1`, the figures for the remaining at 10 min, 0.5 µM in series [8] and in series [9] were 91% and 85%, respectively. In series [5], the Vd is 1.7 L/kg. The Cmax in series [3] worked out at 5 µM. The compound further yielded a bioavailability in series [6] of 100%. This compound registered a clearance in series [7] of 7 mL/min/kg. In series [4], the area under the curve AUC(0-t) at 24 h came to 40 µM·h.
